pIC50: −log10 of the molar value.
Tests used:
[1] = Inhibition of APP (unknown origin); parameters: species or system Homo sapiens
Cytochrome P450 2C19 = Cytochrome P450 2C19 (Homo sapiens, UniProt P33261); assay: Inhibition of CYP2C19 (unknown origin) up to 10 uM; assay type: ADME
Liver [2] = assay: Stability in human liver microsomes; assay type: ADME, microsome
Dipeptidyl peptidase 4 [3] = biological target: Dipeptidyl peptidase 4 (Rattus norvegicus, UniProt P14740); assay: Inhibition of Wistar rat plasma DPP4
Dipeptidyl peptidase 4 [4] = biological target: Dipeptidyl peptidase 4 (Mus musculus, UniProt P28843); assay: Inhibition of ob/ob mouse plasma DPP4
Dipeptidyl peptidase 4 [5] = biological target: Dipeptidyl peptidase 4 (Homo sapiens, UniProt P27487); assay: Inhibition of human plasma DPP4
[6] = biological target: T1, Angiotensin-converting enzyme (Mus musculus, UniProt P09470); assay: Inhibition of ob/ob mouse plasma ACE
T1 sequence (P09470 whole entry): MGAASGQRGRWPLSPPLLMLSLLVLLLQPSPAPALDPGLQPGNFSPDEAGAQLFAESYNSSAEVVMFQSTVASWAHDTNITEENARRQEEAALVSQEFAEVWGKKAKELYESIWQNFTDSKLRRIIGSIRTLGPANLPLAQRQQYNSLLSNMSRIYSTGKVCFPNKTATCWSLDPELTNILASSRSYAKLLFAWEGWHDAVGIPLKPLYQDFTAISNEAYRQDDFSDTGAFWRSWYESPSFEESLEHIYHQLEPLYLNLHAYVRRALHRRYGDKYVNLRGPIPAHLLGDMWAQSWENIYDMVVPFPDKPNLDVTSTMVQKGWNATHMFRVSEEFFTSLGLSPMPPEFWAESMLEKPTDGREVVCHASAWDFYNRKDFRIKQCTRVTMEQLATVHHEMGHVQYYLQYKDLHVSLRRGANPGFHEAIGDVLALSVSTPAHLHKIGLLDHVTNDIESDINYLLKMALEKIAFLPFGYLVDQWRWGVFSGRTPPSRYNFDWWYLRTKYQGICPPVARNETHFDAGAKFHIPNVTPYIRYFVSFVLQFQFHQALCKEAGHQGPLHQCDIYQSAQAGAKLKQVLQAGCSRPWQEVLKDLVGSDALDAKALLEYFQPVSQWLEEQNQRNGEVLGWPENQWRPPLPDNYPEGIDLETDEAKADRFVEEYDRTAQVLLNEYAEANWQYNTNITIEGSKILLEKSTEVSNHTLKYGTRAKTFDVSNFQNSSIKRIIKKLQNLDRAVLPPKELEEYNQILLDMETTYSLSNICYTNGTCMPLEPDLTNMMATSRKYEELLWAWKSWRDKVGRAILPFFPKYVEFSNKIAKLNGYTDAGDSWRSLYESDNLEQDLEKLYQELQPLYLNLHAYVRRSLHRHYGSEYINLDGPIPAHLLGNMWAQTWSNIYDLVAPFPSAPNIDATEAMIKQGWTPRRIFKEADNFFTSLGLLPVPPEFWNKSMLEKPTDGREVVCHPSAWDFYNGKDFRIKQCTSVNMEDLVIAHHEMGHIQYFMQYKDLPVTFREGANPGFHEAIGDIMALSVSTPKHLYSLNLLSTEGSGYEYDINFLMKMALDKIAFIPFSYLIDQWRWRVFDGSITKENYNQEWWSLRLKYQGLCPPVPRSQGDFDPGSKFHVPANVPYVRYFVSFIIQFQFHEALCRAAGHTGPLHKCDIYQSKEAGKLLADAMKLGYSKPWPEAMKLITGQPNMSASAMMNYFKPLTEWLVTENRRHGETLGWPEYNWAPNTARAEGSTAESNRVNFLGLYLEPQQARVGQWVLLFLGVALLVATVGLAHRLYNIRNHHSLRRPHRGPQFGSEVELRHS

[7] = biological target: Angiotensin-converting enzyme (Homo sapiens, UniProt P12821); assay: Inhibition of human plasma ACE
[8] = Plasma protein binding in human; assay type: ADME, cell-free; details: read-out: PPB (converted)
[9] = Plasma protein binding in mouse; assay type: ADME, cell-free; details: read-out: PPB (converted)
[10] = Plasma protein binding in rat; assay type: ADME, cell-free; details: read-out: PPB (converted)
Dipeptidyl peptidase 8 = Dipeptidyl peptidase 8 (Homo sapiens, UniProt Q6V1X1); assay: Inhibition of DPP8 (unknown origin)
Dipeptidyl peptidase 9 = Dipeptidyl peptidase 9 (Homo sapiens, UniProt Q86TI2); assay: Inhibition of DPP9 (unknown origin)
Dipeptidyl peptidase 2 = Dipeptidyl peptidase 2 (Homo sapiens, UniProt Q9UHL4); assay: Inhibition of DPP2 (unknown origin)
Prolyl endopeptidase = biological target: T2, Prolyl endopeptidase (Homo sapiens, UniProt P48147); assay: Inhibition of PPCE (unknown origin)
T2 sequence (P48147 whole entry): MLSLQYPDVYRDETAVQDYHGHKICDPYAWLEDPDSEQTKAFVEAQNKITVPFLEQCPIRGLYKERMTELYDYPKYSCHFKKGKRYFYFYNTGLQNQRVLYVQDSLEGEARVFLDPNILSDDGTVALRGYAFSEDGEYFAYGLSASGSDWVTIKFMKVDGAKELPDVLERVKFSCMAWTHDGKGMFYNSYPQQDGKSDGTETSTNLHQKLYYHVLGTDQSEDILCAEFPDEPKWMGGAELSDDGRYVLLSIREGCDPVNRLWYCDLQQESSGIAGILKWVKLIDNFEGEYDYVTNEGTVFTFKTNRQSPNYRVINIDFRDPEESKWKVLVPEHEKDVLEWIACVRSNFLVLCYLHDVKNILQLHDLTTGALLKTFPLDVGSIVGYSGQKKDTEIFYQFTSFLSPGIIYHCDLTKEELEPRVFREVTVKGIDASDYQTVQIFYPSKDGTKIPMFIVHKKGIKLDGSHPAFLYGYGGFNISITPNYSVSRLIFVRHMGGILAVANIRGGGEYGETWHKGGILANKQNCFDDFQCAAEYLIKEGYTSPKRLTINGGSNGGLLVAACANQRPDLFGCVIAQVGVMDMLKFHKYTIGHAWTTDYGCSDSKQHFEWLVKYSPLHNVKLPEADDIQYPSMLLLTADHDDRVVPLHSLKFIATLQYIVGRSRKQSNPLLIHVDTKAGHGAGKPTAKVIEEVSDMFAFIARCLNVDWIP

Neprilysin = Neprilysin (Homo sapiens, UniProt P08473); assay: Inhibition of NEP (unknown origin)
Aminopeptidase N = Aminopeptidase N (Homo sapiens, UniProt P15144); assay: Inhibition of APN (unknown origin)
Cytochrome P450 2C9 = Cytochrome P450 2C9 (Homo sapiens, UniProt P11712); assay: Inhibition of CYP2C9 (unknown origin) up to 10 uM; assay type: ADME
Cytochrome P450 2D6 = Cytochrome P450 2D6 (Homo sapiens, UniProt P10635); assay: Inhibition of CYP2D6 (unknown origin) up to 10 uM; assay type: ADME
Cytochrome P450 3A4 = Cytochrome P450 3A4 (Homo sapiens, UniProt P08684); assay: Inhibition of CYP3A4 (unknown origin) up to 10 uM; assay type: ADME
Liver [11] = assay: Stability in rat liver microsomes; assay type: ADME, microsome
Liver [12] = assay: Stability in dog liver microsomes; assay type: ADME, Canis lupus familiaris, microsome
[13] = Tmax in Wistar rat plasma at 30 mg/kg, po; assay type: ADME, organism-based
[14] = Cmax in Wistar rat plasma at 30 mg/kg, po; assay type: ADME, organism-based; parameters: dose 30 mg/kg, route oral
[15] = AUC (0 to infinity) in Wistar rat plasma at 30 mg/kg, po; assay type: ADME, organism-based; parameters: dose 30 mg/kg, time infinity, route oral

Chain of Dipeptidyl peptidase 4 (Mus musculus, UniProt P28843) (P28843 whole entry): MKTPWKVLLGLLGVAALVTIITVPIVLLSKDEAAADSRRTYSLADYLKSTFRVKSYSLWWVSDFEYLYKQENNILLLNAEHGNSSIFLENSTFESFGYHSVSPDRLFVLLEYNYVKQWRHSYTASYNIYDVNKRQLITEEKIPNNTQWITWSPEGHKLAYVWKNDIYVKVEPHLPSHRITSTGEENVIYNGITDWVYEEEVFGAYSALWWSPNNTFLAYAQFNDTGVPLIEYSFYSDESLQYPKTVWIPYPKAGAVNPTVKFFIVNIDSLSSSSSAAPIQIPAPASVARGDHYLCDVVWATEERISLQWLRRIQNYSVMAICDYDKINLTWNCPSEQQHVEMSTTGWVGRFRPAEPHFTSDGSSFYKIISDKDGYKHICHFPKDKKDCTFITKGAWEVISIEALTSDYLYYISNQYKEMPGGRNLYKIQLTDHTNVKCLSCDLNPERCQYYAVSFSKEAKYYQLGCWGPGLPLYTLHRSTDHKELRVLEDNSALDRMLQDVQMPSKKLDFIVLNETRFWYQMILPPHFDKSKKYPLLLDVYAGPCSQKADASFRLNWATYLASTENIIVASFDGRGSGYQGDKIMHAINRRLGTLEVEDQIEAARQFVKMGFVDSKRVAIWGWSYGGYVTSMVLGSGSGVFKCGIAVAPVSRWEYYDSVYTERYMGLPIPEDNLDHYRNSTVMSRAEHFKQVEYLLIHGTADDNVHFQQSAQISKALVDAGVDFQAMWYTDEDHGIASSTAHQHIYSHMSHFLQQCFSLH
Chain of Neprilysin (P08473 whole entry): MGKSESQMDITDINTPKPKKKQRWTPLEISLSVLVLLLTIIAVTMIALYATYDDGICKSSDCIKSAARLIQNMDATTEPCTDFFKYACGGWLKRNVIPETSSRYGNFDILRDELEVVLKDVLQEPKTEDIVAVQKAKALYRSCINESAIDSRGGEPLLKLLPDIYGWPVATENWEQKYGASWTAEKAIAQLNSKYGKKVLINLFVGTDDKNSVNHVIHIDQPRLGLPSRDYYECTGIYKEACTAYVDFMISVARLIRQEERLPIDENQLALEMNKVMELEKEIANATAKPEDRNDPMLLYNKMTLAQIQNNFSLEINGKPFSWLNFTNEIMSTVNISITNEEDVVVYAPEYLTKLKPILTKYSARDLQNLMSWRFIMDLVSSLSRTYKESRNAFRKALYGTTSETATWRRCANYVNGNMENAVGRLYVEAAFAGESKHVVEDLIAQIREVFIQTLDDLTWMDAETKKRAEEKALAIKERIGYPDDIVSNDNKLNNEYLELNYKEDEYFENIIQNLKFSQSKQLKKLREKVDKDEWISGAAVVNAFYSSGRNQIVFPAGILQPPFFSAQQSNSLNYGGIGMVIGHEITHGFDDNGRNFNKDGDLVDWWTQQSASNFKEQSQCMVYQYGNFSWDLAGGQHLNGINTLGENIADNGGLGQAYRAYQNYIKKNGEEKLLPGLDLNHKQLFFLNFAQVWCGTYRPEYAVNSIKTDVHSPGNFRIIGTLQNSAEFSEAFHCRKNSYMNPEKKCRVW
Chain of Angiotensin-converting enzyme (Homo sapiens, UniProt P12821) (P12821 whole entry): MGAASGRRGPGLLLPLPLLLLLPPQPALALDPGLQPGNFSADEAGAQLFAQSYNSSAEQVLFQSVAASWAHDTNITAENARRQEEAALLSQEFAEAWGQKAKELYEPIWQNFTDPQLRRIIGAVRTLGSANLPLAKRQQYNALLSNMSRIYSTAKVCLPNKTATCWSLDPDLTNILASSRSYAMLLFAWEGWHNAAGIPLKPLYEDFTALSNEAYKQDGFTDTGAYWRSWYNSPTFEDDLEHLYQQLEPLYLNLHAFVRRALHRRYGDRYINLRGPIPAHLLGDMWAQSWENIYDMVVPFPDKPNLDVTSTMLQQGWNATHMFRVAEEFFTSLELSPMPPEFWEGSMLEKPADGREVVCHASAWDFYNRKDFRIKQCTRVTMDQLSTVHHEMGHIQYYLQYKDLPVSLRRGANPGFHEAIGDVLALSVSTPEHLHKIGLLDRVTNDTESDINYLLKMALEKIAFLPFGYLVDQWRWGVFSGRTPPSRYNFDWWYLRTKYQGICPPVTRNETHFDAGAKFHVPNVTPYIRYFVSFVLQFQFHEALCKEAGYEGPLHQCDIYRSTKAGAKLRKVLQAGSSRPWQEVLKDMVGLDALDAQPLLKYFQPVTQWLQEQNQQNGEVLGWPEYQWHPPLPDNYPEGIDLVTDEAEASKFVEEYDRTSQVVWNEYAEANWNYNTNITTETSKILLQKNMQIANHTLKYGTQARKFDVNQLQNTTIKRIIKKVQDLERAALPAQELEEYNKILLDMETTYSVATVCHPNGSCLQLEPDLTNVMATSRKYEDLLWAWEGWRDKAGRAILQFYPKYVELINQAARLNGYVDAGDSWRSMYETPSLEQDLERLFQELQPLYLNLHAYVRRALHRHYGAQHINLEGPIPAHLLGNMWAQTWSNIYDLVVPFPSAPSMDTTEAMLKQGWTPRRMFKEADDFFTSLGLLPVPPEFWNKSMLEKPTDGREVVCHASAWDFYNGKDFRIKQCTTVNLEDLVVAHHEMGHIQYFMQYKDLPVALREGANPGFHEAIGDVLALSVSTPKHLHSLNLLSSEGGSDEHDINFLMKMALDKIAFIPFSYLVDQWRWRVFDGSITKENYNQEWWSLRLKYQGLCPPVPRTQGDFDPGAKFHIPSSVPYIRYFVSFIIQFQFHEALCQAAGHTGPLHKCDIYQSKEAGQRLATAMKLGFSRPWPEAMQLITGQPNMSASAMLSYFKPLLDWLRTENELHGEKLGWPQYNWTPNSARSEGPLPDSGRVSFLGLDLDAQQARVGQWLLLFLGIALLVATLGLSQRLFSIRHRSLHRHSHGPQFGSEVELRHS
Chain of Dipeptidyl peptidase 4 (Rattus norvegicus, UniProt P14740) (P14740 whole entry): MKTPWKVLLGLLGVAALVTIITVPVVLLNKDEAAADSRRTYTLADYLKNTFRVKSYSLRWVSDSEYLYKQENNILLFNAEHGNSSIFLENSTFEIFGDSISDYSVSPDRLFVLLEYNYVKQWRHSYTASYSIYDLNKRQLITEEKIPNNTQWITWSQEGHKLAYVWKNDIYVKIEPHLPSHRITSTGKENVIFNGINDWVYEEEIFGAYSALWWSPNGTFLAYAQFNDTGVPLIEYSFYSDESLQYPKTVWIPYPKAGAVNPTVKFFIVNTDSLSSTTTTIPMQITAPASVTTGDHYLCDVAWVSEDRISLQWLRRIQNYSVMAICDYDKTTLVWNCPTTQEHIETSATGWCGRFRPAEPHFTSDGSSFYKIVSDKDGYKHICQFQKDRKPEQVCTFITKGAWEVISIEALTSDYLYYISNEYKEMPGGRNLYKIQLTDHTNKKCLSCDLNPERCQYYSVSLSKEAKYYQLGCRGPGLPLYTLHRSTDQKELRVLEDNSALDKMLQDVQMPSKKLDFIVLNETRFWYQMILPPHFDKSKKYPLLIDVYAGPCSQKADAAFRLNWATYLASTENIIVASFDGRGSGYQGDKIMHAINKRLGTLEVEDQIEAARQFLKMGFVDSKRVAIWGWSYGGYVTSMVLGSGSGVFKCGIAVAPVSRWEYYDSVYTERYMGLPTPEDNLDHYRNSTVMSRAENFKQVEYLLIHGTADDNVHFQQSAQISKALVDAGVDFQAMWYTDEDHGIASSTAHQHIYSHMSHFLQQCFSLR
Chain of Cytochrome P450 2C19 (P33261 whole entry): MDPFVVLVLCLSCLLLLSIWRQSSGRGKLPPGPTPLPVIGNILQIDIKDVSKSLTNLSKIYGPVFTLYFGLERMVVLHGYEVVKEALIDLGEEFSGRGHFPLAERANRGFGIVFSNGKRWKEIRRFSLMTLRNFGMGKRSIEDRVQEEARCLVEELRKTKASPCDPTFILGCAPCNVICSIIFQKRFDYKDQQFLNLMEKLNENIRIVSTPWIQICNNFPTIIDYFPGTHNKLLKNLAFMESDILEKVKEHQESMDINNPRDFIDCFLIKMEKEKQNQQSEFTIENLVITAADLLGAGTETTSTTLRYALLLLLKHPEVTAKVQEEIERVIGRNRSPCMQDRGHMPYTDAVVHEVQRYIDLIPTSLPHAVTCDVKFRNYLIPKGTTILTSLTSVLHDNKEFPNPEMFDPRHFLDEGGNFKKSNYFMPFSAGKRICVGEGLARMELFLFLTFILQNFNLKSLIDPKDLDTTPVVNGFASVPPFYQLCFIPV
Chain of Cytochrome P450 2C9 (P11712 whole entry): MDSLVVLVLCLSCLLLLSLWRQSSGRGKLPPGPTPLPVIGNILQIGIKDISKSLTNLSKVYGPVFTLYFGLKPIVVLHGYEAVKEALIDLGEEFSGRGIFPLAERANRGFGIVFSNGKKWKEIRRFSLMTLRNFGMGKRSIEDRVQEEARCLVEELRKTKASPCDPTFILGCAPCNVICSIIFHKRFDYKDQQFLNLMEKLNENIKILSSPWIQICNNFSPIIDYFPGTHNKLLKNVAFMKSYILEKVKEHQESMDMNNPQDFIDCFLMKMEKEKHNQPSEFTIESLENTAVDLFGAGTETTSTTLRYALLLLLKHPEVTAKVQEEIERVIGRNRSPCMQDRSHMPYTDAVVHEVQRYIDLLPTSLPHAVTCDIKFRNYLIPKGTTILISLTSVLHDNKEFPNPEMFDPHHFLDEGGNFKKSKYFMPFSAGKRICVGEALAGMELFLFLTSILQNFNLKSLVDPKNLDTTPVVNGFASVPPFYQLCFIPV
Chain of Cytochrome P450 2D6 (P10635 whole entry): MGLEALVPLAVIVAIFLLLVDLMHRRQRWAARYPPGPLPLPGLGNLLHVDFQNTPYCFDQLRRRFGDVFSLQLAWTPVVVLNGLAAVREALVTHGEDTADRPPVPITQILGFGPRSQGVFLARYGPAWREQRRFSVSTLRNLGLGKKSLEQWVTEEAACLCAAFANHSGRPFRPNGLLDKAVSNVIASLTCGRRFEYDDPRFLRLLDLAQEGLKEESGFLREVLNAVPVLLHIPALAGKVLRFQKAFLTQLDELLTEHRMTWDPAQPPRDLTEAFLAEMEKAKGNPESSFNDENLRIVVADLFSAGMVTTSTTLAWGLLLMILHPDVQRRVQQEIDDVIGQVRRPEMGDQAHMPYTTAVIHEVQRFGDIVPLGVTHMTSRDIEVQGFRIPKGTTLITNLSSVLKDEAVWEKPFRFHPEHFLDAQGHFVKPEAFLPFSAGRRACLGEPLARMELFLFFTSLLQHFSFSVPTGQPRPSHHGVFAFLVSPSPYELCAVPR

pIC50 [1]	inhibition (INH) (Cytochrome P450 2C19)	Stability (Liver [2])	pIC50 (Dipeptidyl peptidase 4 [3])	pIC50 (Dipeptidyl peptidase 4 [4])	pIC50 (Dipeptidyl peptidase 4 [5])	pIC50 [6]	pIC50 [7]	fraction unbound [8]	fraction unbound [9]	fraction unbound [10]	pIC50 (Dipeptidyl peptidase 8)	pIC50 (Dipeptidyl peptidase 9)	pIC50 (Dipeptidyl peptidase 2)	pIC50 (Neprilysin)	pIC50 (Aminopeptidase N)	inhibition (INH) (Cytochrome P450 2C9)	inhibition (INH) (Cytochrome P450 2D6)	inhibition (INH) (Cytochrome P450 3A4)	Stability (Liver [11])	SMILES	other results
< 4.00	Not Active	Stable	5.38	5.14	6.99	5.66	6.55	0.327	0.014	0.583	< 4.00	< 4.00	< 4.00	< 4.00	< 4.00	Not Active	Not Active	Not Active	Stable	CCCC[C@H](N[C@@H](CCc1ccccc1)C(=O)O)C(=O)N1C[C@@H](NC(=O)C[C@H](N)Cc2cc(F)c(F)cc2F)C[C@H]1C(=O)O	pIC50 (Prolyl endopeptidase): < 4.00; Stability (Liver [12]): Stable; Tmax [13]: 2 h; Cmax [14]: 1330 ng/mL; AUC(0-inf) [15]: 16800 ng·h/mL
< 4.00	Not Active	Stable	6.81	6.66	6.59	7.24	6.80	0.707	0.51	0.58	4.57	4.36	< 4.00	< 4.00	< 4.00	Not Active	Not Active	Not Active	Stable	C[C@H](N[C@@H](CCc1ccccc1)C(=O)O)C(=O)N1C[C@@H](NC(=O)C[C@H](N)Cc2cc(F)c(F)cc2F)C[C@H]1C(=O)O	Stability (Liver [12]): Stable; Tmax [13]: 1.5 h; Cmax [14]: 260 ng/mL; AUC(0-inf) [15]: 1170 ng·h/mL
< 4.00	Not Active	Stable	5.91	5.61	7.17	5.69	7.29	0.597	0.015	0.564	4.24	< 4.00	< 4.00	< 4.00	< 4.00	Not Active	Not Active	Not Active	Stable	CCC[C@H](N[C@@H](CCc1ccccc1)C(=O)O)C(=O)N1C[C@@H](NC(=O)C[C@H](N)Cc2cc(F)c(F)cc2F)C[C@H]1C(=O)O	pIC50 (Prolyl endopeptidase): < 4.00; Stability (Liver [12]): Stable; Tmax [13]: 3.3 h; Cmax [14]: 2500 ng/mL; AUC(0-inf) [15]: 23500 ng·h/mL
< 4.00	Not Active	Stable	6.50	6.31	7.24	7.00	8.05 to 8.07	0.636	0.129	0.403	4.16	< 4.00	< 4.00	< 4.00	< 4.00	Not Active	Not Active	Not Active	Stable	CC[C@H](N[C@@H](CCc1ccccc1)C(=O)O)C(=O)N1C[C@@H](NC(=O)C[C@H](N)Cc2cc(F)c(F)cc2F)C[C@H]1C(=O)O	pIC50 (Prolyl endopeptidase): < 4.00; Stability (Liver [12]): Stable; Tmax [13]: 1.67 h; Cmax [14]: 550 ng/mL; AUC(0-inf) [15]: 2860 ng·h/mL
